Assay results from publication PMC3250956, “Functional characterization and analgesic effects of mixed cannabinoid receptor/T-type channel ligands” (Molecular Pain, 2011).

Key:
[1] = system: formalin-induced pain; assay: Formalin test (formalin-induced nociception); assay type: in vivo, mice; conditions: for effect on second phase of formalin-induced nociception / effect on first phase of formalin-induced nociception: i.pl., co-injected with formalin; for effect on second phase of formalin-induced nociception: 0.03-3 μg/paw; for effect on first phase of formalin-induced nociception: NMP-4 and NMP-144 0.03-3 μg/paw, NMP-7 0.3-3 μg/i.pl.; for reduction of pain response time, first (neurogenic) phase / reduction of pain response time, second (inflammatory) phase: 10 min prior, NMP-4 1-10 μg/i.t., NMP-144 0.1-1 μg/i.t., NMP-7 3-30 μg/i.t., mice
Experimental: All experiments were conducted following the protocol approved by the Institutional Animal Care and Use Committee (protocol #M09130) and all efforts were made to minimize animal suffering. Male mice of C57BL/6J strain weighing 25~30 g, 10 weeks old were used. Animals were housed at a maximum number of five per cage (30 × 20 × 15 cm) with food and water ad libitum. They were kept in 12 h light/dark cycles (lights on at 7:00 a.m.) at a temperature of 23 ± 1°C. All manipulations were carried out between 11:00 am and 3:00 pm. […] Control animals received the same vehicle used to dilute the compounds. When drugs were delivered by intraperitoneal (i.p.) route, a constant volume of 10 ml/kg body weight was injected. When drugs were administered by intrathecal (i.t.) or intraplantar (i.pl.) routes, respectively volumes of 5 μl or 20 μl were injected. Appropriate vehicle-treated groups were also assessed simultaneously.
The formalin test is a widely used model that allows us to evaluate two different types of pain: neurogenic pain (phase 1) is caused by direct activation of nociceptive nerve terminals, while inflammatory pain (phase 2) is mediated by a combination of peripheral input and spinal cord sensitization. Animals received 20 μl of a formalin solution (1.25%) made up in PBS injected intraplantarly (i.pl.) in the ventral surface of the right hindpaw. Following i.pl. injection of formalin, the animals were immediately placed individually into observation chambers and the time spent licking or biting the injected paw was be recorded and considered as nociceptive response. We observed animals individually from 0-5 min (neurogenic phase) and 15-30 min (inflammatory phase).
Intrathecal injections were given to fully conscious mice using the method previously described by Hylden and Wilcox. Briefly, the animals were manually restrained, and a 30-gauge needle connected by a polyethylene tube to a 25 μl Hamilton syringe (Hamilton, Birmingham, UK) was inserted through the skin and between the vertebrae into the […] space of the L5-L6 spinal segments. Intrathecal injections were given over a period of 5 seconds.

[2] = target: T1, human 5-HT2A (Homo sapiens, UniProt P28223); assay: Primary radioligand competitive binding assay, [3H]ketanserin; conditions: ligand 10 μM, HEK293 cells
T1 construct: expressed in transfected cells; host or cells: HEK293 (Flp-In system, pcDNA5.0FRT)
T1 sequence (P28223 whole entry): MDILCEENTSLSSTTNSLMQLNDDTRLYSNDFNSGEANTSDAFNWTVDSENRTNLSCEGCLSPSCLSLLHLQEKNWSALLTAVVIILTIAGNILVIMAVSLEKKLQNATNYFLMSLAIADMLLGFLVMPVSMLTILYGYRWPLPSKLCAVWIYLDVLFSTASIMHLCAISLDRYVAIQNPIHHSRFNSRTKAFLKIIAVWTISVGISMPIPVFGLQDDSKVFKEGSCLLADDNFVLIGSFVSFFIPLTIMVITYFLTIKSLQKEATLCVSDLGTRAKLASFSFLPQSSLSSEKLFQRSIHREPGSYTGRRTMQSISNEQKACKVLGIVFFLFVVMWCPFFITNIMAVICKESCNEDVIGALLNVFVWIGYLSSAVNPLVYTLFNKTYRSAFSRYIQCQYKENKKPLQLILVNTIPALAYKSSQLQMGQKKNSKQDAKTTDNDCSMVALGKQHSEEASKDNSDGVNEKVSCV
Experimental: (§1) HEK293 cells and CHO cells were used in the radioligand binding assay while tsA-201 cells were used in the electrophysiological study. Human CB2, human 5-HT2A, rat 5-HT2C used in the binding studies were cloned into pcDNA5.0FRT and cell lines were made using the FlpIn system from Invitrogen. tsA-201 cell culture and transient calcium channel transfection were performed as described previously. In brief, tsA-201 cells were transfected using the calcium phosphate method. Cav3.1, 3.2 and 3.3 α1 subunits were transfected individually with yellow fluorescent protein as a transfection marker.
(§2) Radioligand binding data were obtained using National Institute of Mental Health's Psychoactive Drug Screening Program (NIMH/PDSP) using the same protocol described for CB1 and CB2 binding experiments. Transfected HEK293 (human 5-HT2A or rat 5-HT2C) cells were used. The radioligands were [^3H]ketanserin (0.5 nM) and [^3H]mesulergine (0.5 nM) for respectively 5-HT2A and 5-HT2C experiments. Non-specific binding was determined in the presence of 10 μM chlorpromazine for both 5-HT2A and 5-HT2C binding experiments. Cells were harvested and homogenized in 50 mM Tris HCl, 10 mM MgCl2, 0.1 mM EDTA, pH 7.4. Incubation of radioreceptor binding assay mixtures was 1.5 hours at room temperature in the dark.

[3] = target: Human CB2 (Homo sapiens, UniProt P34972); assay: GTPγ[35S] functional assay, CHO cell membrane extracts; assay type: biochemical; set-up: expressed in transfected cells; host or cells: CHO cells (membrane extracts); conditions: for Emax: read-out: GTPγ[35S] functional assays Human CB2 Emax
Sequence of Human CB2 (P34972 whole entry): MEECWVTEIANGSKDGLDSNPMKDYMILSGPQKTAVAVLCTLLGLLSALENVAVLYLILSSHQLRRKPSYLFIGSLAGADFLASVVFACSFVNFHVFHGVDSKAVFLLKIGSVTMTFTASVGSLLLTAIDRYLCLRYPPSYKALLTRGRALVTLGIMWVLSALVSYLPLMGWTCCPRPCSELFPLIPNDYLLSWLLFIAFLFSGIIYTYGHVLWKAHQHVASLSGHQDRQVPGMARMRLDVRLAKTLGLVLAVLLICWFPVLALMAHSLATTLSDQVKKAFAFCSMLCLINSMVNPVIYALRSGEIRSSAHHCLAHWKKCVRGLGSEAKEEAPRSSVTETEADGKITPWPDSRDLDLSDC

[4] = target: T2, rat 5-HT2C (Rattus norvegicus, UniProt P08909); assay: Primary radioligand competitive binding assay, [3H]mesulergine; conditions: ligand 10 μM, HEK293 cells
T2 construct: expressed in transfected cells; host or cells: HEK293 (Flp-In system, pcDNA5.0FRT)
T2 sequence (P08909 33-460): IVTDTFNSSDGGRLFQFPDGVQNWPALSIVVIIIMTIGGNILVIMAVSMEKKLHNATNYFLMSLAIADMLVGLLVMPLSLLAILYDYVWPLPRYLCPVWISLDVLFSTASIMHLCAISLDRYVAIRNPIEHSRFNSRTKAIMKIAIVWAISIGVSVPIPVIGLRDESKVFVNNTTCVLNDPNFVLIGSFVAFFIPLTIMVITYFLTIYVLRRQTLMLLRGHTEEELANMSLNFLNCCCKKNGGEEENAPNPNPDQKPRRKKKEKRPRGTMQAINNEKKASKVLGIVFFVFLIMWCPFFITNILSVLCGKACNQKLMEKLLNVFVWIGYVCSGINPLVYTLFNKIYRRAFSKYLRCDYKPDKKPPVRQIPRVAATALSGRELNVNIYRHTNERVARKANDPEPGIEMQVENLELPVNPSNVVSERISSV
Experimental: as §1, §2

| Structure (SMILES) | effect of i.pl. pre-treatment on the antinociceptive effect of NMP-7 (1 μg/i.pl.), first phase ([1]; NMP-4 0.03 μg/i.pl. pre-treatment) | effect on second phase of formalin-induced nociception [1] | effect on first phase of formalin-induced nociception [1] | reduction of pain response time, first (neurogenic) phase ([1]; i.t.) | reduction of pain response time, second (inflammatory) phase ([1]; i.t.) | Human 5-HT2A (%) primary radioligand competitive binding [2] | EC50 [3] | Emax [3] | Rat 5-HT2C (%) primary radioligand competitive binding [4] | lowest dose producing analgesia ([1]; i.t., formalin response) |
| --- | --- | --- | --- | --- | --- | --- | --- | --- | --- | --- |
| CCCCCn1c2ccc(C(=O)N3CCCCC3)cc2c2ccc(OC)cc21 [NMP-4] | significantly antagonized | no effect was observed | no effect was observed | 44 ± 4% | 87 ± 7% | 23.9% | 9.8 ± 0.3 nM | -76.4% | -9.3% | – |
| CCCCCn1c2c(c3ccc(OC)cc31)CN(C(=O)c1ccccc1)CC2 [NMP-144] | – | no effect was observed | no effect was observed | 52 ± 3% | 53 ± 14% | -5.2% | 35.7 ± 13.9 nM | -48.1% | 13% | 0.3 μg/i.t. |
